Test results: patent US20230333087A1, “METHODS FOR MONITORING PATIENT RESPONSE TO TREATMENT OF RETINAL OXIDATIVE DISEASES” (BioJiva LLC, priority 2022, published 2023)

What was measured:
retinal structure = experiment: Toluidine blue staining of plastic sections, retinal histology and thickness; type: in vivo, C57BL/6J mice
Protocol: Electroretinography was conducted on mice fed with D-DHA or natural DHA for 4 weeks to evaluate retinal function. […] Thus, using this measure, incorporation of D-DHA had no impact on retinal function (FIG. 7A). […] Toluidine blue staining was performed on plastic sections to examine retinal histology.
Plastic sections (3 µm) were cut in the sagittal plane. The third eyelid was used for the orientation when embedding eye cups. Toluidine blue staining on plastic sections was used to evaluate retinal morphology.

[1] = D-DHA content of neural retina and RPE on 0.25% D-DHA diet by mass spectrometry; type: in vivo, C57BL/6J mice; conditions: for % D-substitution: 4 weeks diet + IVT injection + 1 week
Description: To determine the pharmacokinetics of ocular D-DHA uptake, incorporation and elimination from the neural retina and RPE/choroid/sclera, twelve-week-old C57BL/6J mice were fed a 0.5% D-DHA containing diet (0.5 g D-DHA/100 g food, Table 3) for 77 days followed by an additional 73-day wash-out phase with DHA. At 4 weeks, >55% of the DHA in the retina was D-DHA rising to >60% at 5 weeks (FIG. 6A). At similar time points, D-DHA in the RPE/choroid/sclera was >80%. […] Based on the accretion and elimination data, two-month-old mice were fed with diets containing either D-DHA or natural DHA control for 1 week, 2 weeks, 3 weeks, and 4 weeks before the IVT injection of iron and saline control (FIG. 6B). In order to better approximate typical DHA doses in human prescription omega-3 supplements (e.g. 1,500 mg/day DHA in Lovaza), the D-DHA and DHA experimental mouse diets were adjusted to 0.25% instead of 0.5% for most of the study. On a 0.25% D-DHA diet, retinal D-DHA levels exceeded 50% at five weeks (52.2±1.5% and 55% of total DHA by our GC- and LC- based MS methods, respectively), regardless of whether eyes were injected with iron or control saline (Table 3).
The extent to which D-DHA replaced natural DHA was determined by LC/MS by feeding an experimental diet containing 0.25% D-DHA for increasing periods of time. Microdissected samples of neural retina and RPE from mice fed the experimental diet for 4 weeks were analyzed after given IVT iron or control saline, and then continued on the experimental diet for another week. It was confirmed that 22.6% of DHA in the control diet consisted of isotopomers due to natural abundance ^13C and no D-DHA. Therefore, signals from the 327.2/283.2 transition represent 78.4% of the total DHA. The experimental diet contained no detectable natural DHA, but rather a distribution of deuterium-substituted DHA isotopologues (FIGS. 11A-C), which is a consequence of the D-DHA preparation method. After corrections were applied for natural abundance ^13C, it was determined that the D10-DHA isotopologue comprised 45.6% of the D-DHA species in the analyzed sample, with Ds-DHA, D9-DHA, D11-DHA, and D12-DHA isotopologues comprising the balance. Therefore, signals from the 337.2/293.2 transition represented 45.6% of the D-DHA. With these corrections applied, D-DHA isotopologues as a percentage of total DHA (i.e., D-DHA + DHA) was determined to be 59.3-60.8 % in isolated RPE, and 55.0 % in neural retina.
(§1) Adult male wild-type C57BL/6J mice (Stock No.000664, Jackson Labs, Bar Harbor, ME, USA) were housed in standard conditions under cyclic light (12 h:12 h light-dark cycle). Mice had ad libitum access to water and food. Beginning at 2 mo of age, mice were placed on the AIN93G diet described above, supplemented with 0.25% D-DHA or DHA (control diet) for 1 week, 2 weeks, 3 weeks, or 4 weeks prior to the intravitreal injection. Mice were given an intravitreal injection of 1 µl 0.5 mM ferric ammonium citrate diluted in 0.9% NaCl (saline) (MP Biomedicals LLC, Santa Ana, CA) or
Three types of mass spectrometric analysis were performed to confirm repeatability of results. In the first, lipids were extracted from retinas by a modified Folch method (CHCl3/CH3OH, 2:1). derivatized to fatty acid methyl esters (FAME), and analyzed by high resolution capillary gas chromatography and specialized chemical ionization tandem mass spectrometry. Baseline resolved DHA and D-DHA total ion signal were integrated, and the proportions of D-DHA/total DHA were calculated. The second type of mass spectrometric analysis was performed on samples of the control and experimental diets, as well as microdissected neural retina and RPE from animals on the experimental diet. Lipids were extracted and saponified, and analyzed by ESI-LC/MS on a 4000 QTrap (Sciex) operating in enhanced negative mode over an m/z range of 320 - 345 and a scan rate of 250 /sec. […]

[2] = system: iron-induced geographic atrophy; experiment: Iron-induced geographic atrophy development, imaging 4 weeks after injection; type: in vivo, C57BL/6J mice; conditions: 4 weeks diet before and 4 weeks after iron injection
Description: To evaluate whether D-DHA could protect against geographic atrophy in this model, mice were continued on respective diets for 4 weeks after iron or saline injection. […] This corresponded to photoreceptor (white arrows) and RPE degeneration (black arrows) in OCT scans (FIG. 10C). […] Taken together, […] retinal D-DHA provided long-term protection against the geographic atrophy development induced by iron.
as §1
Mice were given general anesthesia and placed on a platform. Pupils were dilated with 1% tropicamide saline solution (Akorn, Inc., Lake Forest, IL). Optical coherence tomography (OCT) imaging was performed for visualization of the retinal structure by using a Bioptigen
Envisu (R2200, Bioptigen Inc., Durham, NC, USA) coupled to a broadband LED light source (T870-HP, Superlum Diodes, Ltd, Ireland). […]

[3] = system: lipid peroxidation in a lipid membrane; conditions: present at 1% fraction of the total PUFAs in a lipid membrane in vitro; cited from earlier work

retinal D-DHA levels (% of total DHA) ([1]; 0.25% D-DHA diet, five weeks (4+1), neural retina, LC-based MS method): 55%
retinal D-DHA levels (% of total DHA) ([1]; 0.25% D-DHA diet, five weeks, GC-based MS method): 52.2±1.5%
retinal D-DHA levels ([1]; 0.25% D-DHA diet, five weeks, iron or saline injected eyes): exceeded 50%
% D-substitution ([1]; RPE cells, D-DHA + Fe): 59.3 ± 3.9%
% D-substitution ([1]; RPE cells, D-DHA + saline): 60.8 ± 2.1%
D-DHA isotopologues as a percentage of total DHA ([1]; isolated RPE, 0.25% diet, 4+1 weeks, LC/MS): 59.3-60.8%
substitution of DHA with D-DHA in the neural retina ([1]; mice fed with D-DHA for 4 weeks): > 50%
% D-substitution ([1]; neural retina, D-DHA + Fe): 55.0 ± 3.3%
% D-substitution ([1]; neural retina, D-DHA + saline): 55.0 ± 1.8%
Compound: [2H]C([2H])(/C=C\CC)/C=C\C([2H])([2H])/C=C\C([2H])([2H])/C=C\C([2H])([2H])/C=C\C([2H])([2H])/C=C\CCC(=O)OCC [D-DHA, 6,6,9,9,12,12,15,15,18,18-D10-(4Z,7Z,10Z,13Z,16Z, 19Z)-docosa 4,7,10,13,16, 19-hexaenoic acid ethyl ester]
retinal structure (toluidine blue histology) (retinal structure; 1 week after iron injection): complete protection
total retina thickness and outer retina thickness (retinal structure; IVT iron injected eyes, 1 week after injection): significantly protected and not different from saline injected eyes
geographic atrophy development [2]: fully protected
inhibition of LPO in liposomes [3]: efficiently inhibited the LPO
